Test: Paramagnetic relaxation properties in water at 10 MHz (0.15T), RADX spin analyzer
Format: physicochemical
Details: 0.97 mM solution in water, 10 MHz (0.15T), 37°C, triplicate, mean +/- SD
Protocol: The paramagnetic relaxation properties of [manganese(II)·(H₂O)₂·(L-alanine)₂]⁺²(Cl₂)⁻² in water were measured at 10 MHz (0.15T) with a spin analyzer (RADX; Houston, TX) at 37°C. After thermal equilibrium, the spin-lattice (T₁) and spin-spin (T₂) relaxation values were measured in triplicate.
The paramagnetic relaxation of the title compound in water was measured at 10 MHz (0.15T) with a spin analyzer (RADX; Houston, TX). After thermal equilibrium, the spin-lattice (T₁) and spin-spin (T₂) relaxation values were measured.
Relaxivity was measured at 10 MHz (0.15T) as described in Example 10.
The relaxivity of the title compound was performed at 0.15 T (10 MHz) with a RADX Spin Analyzer (Houston, TX) at 37°C.

SMILES | spin-lattice (T₁) relaxation value [ms] | spin-spin (T₂) relaxation value [ms]
N[C@@H](CS)C(=O)O.N[C@@H](CS)C(=O)O.O.O.[Cl-].[Cl-].[Mn+2] [Manganese(II)·(H₂O)₂·(L-cysteine)₂]⁺²(Cl₂)⁻²] | 105 ± 4 | 25 ± 1
N=C(N)NCCC[C@H](N)C(=O)O.N=C(N)NCCC[C@H](N)C(=O)O.O.O.[Cl-].[Cl-].[Mn+2] [[Manganese(II)·(H₂O)₂·(L-arginine)₂]⁺²(Cl₂)⁻²] | 348 ± 7 | 97 ± 4
NCCCC[C@H](N)C(=O)O.NCCCC[C@H](N)C(=O)O.O.O.[Cl-].[Cl-].[Mn+2] [Manganese(II)·(H₂O)₂·(L-lysine)₂]⁺²(Cl₂)⁻²] | 108 ± 9 | 26 ± 1

Same assay, conditions: in water, 10 MHz (0.15T); calculated from T₁ and concentration

SMILES | millimolar relaxivity for T₁ [mM⁻¹ s⁻¹]
N[C@@H](CS)C(=O)O.N[C@@H](CS)C(=O)O.O.O.[Cl-].[Cl-].[Mn+2] [Manganese(II)·(H₂O)₂·(L-cysteine)₂]⁺²(Cl₂)⁻²] | 9.82
N=C(N)NCCC[C@H](N)C(=O)O.N=C(N)NCCC[C@H](N)C(=O)O.O.O.[Cl-].[Cl-].[Mn+2] [[Manganese(II)·(H₂O)₂·(L-arginine)₂]⁺²(Cl₂)⁻²] | 2.96
NCCCC[C@H](N)C(=O)O.NCCCC[C@H](N)C(=O)O.O.O.[Cl-].[Cl-].[Mn+2] [Manganese(II)·(H₂O)₂·(L-lysine)₂]⁺²(Cl₂)⁻²] | 9.55

Same assay, conditions: in water, 10 MHz (0.15T); calculated from T₂ and concentration

SMILES | millimolar relaxivity for T₂ [mM⁻¹ s⁻¹]
N[C@@H](CS)C(=O)O.N[C@@H](CS)C(=O)O.O.O.[Cl-].[Cl-].[Mn+2] [Manganese(II)·(H₂O)₂·(L-cysteine)₂]⁺²(Cl₂)⁻²] | 41.2
N=C(N)NCCC[C@H](N)C(=O)O.N=C(N)NCCC[C@H](N)C(=O)O.O.O.[Cl-].[Cl-].[Mn+2] [[Manganese(II)·(H₂O)₂·(L-arginine)₂]⁺²(Cl₂)⁻²] | 10.6
NCCCC[C@H](N)C(=O)O.NCCCC[C@H](N)C(=O)O.O.O.[Cl-].[Cl-].[Mn+2] [Manganese(II)·(H₂O)₂·(L-lysine)₂]⁺²(Cl₂)⁻²] | 39.7

Test: Paramagnetic relaxation properties in human plasma at 37°C
Format: physicochemical
Details: 92 µM final concentration, 37°C

SMILES | T₂ value [ms]
N[C@@H](CS)C(=O)O.N[C@@H](CS)C(=O)O.O.O.[Cl-].[Cl-].[Mn+2] [Manganese(II)·(H₂O)₂·(L-cysteine)₂]⁺²(Cl₂)⁻²] | 190 ± 17
N=C(N)NCCC[C@H](N)C(=O)O.N=C(N)NCCC[C@H](N)C(=O)O.O.O.[Cl-].[Cl-].[Mn+2] [[Manganese(II)·(H₂O)₂·(L-arginine)₂]⁺²(Cl₂)⁻²] | 287 ± 11
NCCCC[C@H](N)C(=O)O.NCCCC[C@H](N)C(=O)O.O.O.[Cl-].[Cl-].[Mn+2] [Manganese(II)·(H₂O)₂·(L-lysine)₂]⁺²(Cl₂)⁻²] | 192 ± 8

Same assay, conditions: 92 µM final concentration, 37°C, triplicate

SMILES | T₁ value [ms]
N[C@@H](CS)C(=O)O.N[C@@H](CS)C(=O)O.O.O.[Cl-].[Cl-].[Mn+2] [Manganese(II)·(H₂O)₂·(L-cysteine)₂]⁺²(Cl₂)⁻²] | 247 ± 14
N=C(N)NCCC[C@H](N)C(=O)O.N=C(N)NCCC[C@H](N)C(=O)O.O.O.[Cl-].[Cl-].[Mn+2] [[Manganese(II)·(H₂O)₂·(L-arginine)₂]⁺²(Cl₂)⁻²] | 439 ± 27
NCCCC[C@H](N)C(=O)O.NCCCC[C@H](N)C(=O)O.O.O.[Cl-].[Cl-].[Mn+2] [Manganese(II)·(H₂O)₂·(L-lysine)₂]⁺²(Cl₂)⁻²] | 230 ± 9

Same assay, conditions: 37°C

SMILES | R₁ [mM⁻¹ s⁻¹] | R₂ [mM⁻¹ s⁻¹]
N[C@@H](CS)C(=O)O.N[C@@H](CS)C(=O)O.O.O.[Cl-].[Cl-].[Mn+2] [Manganese(II)·(H₂O)₂·(L-cysteine)₂]⁺²(Cl₂)⁻²] | 44.0 | 57.2
N=C(N)NCCC[C@H](N)C(=O)O.N=C(N)NCCC[C@H](N)C(=O)O.O.O.[Cl-].[Cl-].[Mn+2] [[Manganese(II)·(H₂O)₂·(L-arginine)₂]⁺²(Cl₂)⁻²] | 24.8 | 37.9
NCCCC[C@H](N)C(=O)O.NCCCC[C@H](N)C(=O)O.O.O.[Cl-].[Cl-].[Mn+2] [Manganese(II)·(H₂O)₂·(L-lysine)₂]⁺²(Cl₂)⁻²] | 47.3 | 56.6

Same assay, conditions: 37°C, repeat measurement 80 minutes later

SMILES | T₁ changed by (repeat measurement) [%] | T₂ changed by (repeat measurement) [%]
N[C@@H](CS)C(=O)O.N[C@@H](CS)C(=O)O.O.O.[Cl-].[Cl-].[Mn+2] [Manganese(II)·(H₂O)₂·(L-cysteine)₂]⁺²(Cl₂)⁻²] | 4 | 1
N=C(N)NCCC[C@H](N)C(=O)O.N=C(N)NCCC[C@H](N)C(=O)O.O.O.[Cl-].[Cl-].[Mn+2] [[Manganese(II)·(H₂O)₂·(L-arginine)₂]⁺²(Cl₂)⁻²] | 8 | 22
NCCCC[C@H](N)C(=O)O.NCCCC[C@H](N)C(=O)O.O.O.[Cl-].[Cl-].[Mn+2] [Manganese(II)·(H₂O)₂·(L-lysine)₂]⁺²(Cl₂)⁻²] | 3 | 3

Same assay, conditions: versus GdDTPA

SMILES | T₂ relaxivity in plasma, fold greater than GdDTPA [fold]
N[C@@H](CS)C(=O)O.N[C@@H](CS)C(=O)O.O.O.[Cl-].[Cl-].[Mn+2] [Manganese(II)·(H₂O)₂·(L-cysteine)₂]⁺²(Cl₂)⁻²] | 11.9
N=C(N)NCCC[C@H](N)C(=O)O.N=C(N)NCCC[C@H](N)C(=O)O.O.O.[Cl-].[Cl-].[Mn+2] [[Manganese(II)·(H₂O)₂·(L-arginine)₂]⁺²(Cl₂)⁻²] | 7.9
NCCCC[C@H](N)C(=O)O.NCCCC[C@H](N)C(=O)O.O.O.[Cl-].[Cl-].[Mn+2] [Manganese(II)·(H₂O)₂·(L-lysine)₂]⁺²(Cl₂)⁻²] | 11.8

Same assay, conditions: versus gadolinium diethylenetriaminepentaacetic acid chelate (GdDTPA)

SMILES | T₁ relaxivity in plasma, fold greater than GdDTPA [fold]
N[C@@H](CS)C(=O)O.N[C@@H](CS)C(=O)O.O.O.[Cl-].[Cl-].[Mn+2] [Manganese(II)·(H₂O)₂·(L-cysteine)₂]⁺²(Cl₂)⁻²] | 9.2
N=C(N)NCCC[C@H](N)C(=O)O.N=C(N)NCCC[C@H](N)C(=O)O.O.O.[Cl-].[Cl-].[Mn+2] [[Manganese(II)·(H₂O)₂·(L-arginine)₂]⁺²(Cl₂)⁻²] | 5.2
NCCCC[C@H](N)C(=O)O.NCCCC[C@H](N)C(=O)O.O.O.[Cl-].[Cl-].[Mn+2] [Manganese(II)·(H₂O)₂·(L-lysine)₂]⁺²(Cl₂)⁻²] | 9.9
